Measurements taken from the NIST ThermoML archive (doi:10.1021/je400407z).
± gives the expanded uncertainty stated by the source.

Settings: Liquid, Closed cell (Static) method

FC(F)CC(F)(F)F [1,1,1,3,3-pentafluoropropane]
vapor or sublimation pressure (260.32 K): 28.52 ± 2.4 kPa | vapor or sublimation pressure (272.13 K): 50.91 ± 2.4 kPa | vapor or sublimation pressure (281.15 K): 75.62 ± 2.4 kPa | vapor or sublimation pressure (293.31 K): 122.98 ± 2.4 kPa | vapor or sublimation pressure (305.49 K): 192.78 ± 2.5 kPa | vapor or sublimation pressure (313.62 K): 254.28 ± 2.5 kPa | vapor or sublimation pressure (321.4 K): 324.38 ± 2.5 kPa | vapor or sublimation pressure (333.49 K): 467.72 ± 2.6 kPa | vapor or sublimation pressure (345.16 K): 642.26 ± 2.7 kPa | vapor or sublimation pressure (351.47 K): 754.32 ± 2.9 kPa | vapor or sublimation pressure (364 K): 1028.2 ± 3.2 kPa | vapor or sublimation pressure (377.04 K): 1378.2 ± 3.5 kPa

C=C(Cl)C(F)(F)F [2-chloro-3,3,3-trifluoro-1-propene]
vapor or sublimation pressure (263.25 K): 43.43 ± 2.4 kPa | vapor or sublimation pressure (264.27 K): 45.2 ± 2.4 kPa | vapor or sublimation pressure (265.23 K): 47.13 ± 2.4 kPa | vapor or sublimation pressure (266.27 K): 48.88 ± 2.4 kPa | vapor or sublimation pressure (267.16 K): 51.02 ± 2.4 kPa | vapor or sublimation pressure (267.22 K): 50.69 ± 2.4 kPa | vapor or sublimation pressure (268.2 K): 52.65 ± 2.4 kPa | vapor or sublimation pressure (269.08 K): 55.2 ± 2.4 kPa | vapor or sublimation pressure (270.04 K): 57.24 ± 2.4 kPa | vapor or sublimation pressure (270.94 K): 59.24 ± 2.4 kPa | vapor or sublimation pressure (270.95 K): 59.34 ± 2.4 kPa | vapor or sublimation pressure (271.9 K): 61.45 ± 2.4 kPa | vapor or sublimation pressure (273.85 K): 66.42 ± 2.4 kPa | vapor or sublimation pressure (274.8 K): 68.69 ± 2.4 kPa | vapor or sublimation pressure (275.39 K): 70.68 ± 2.4 kPa | vapor or sublimation pressure (277.03 K): 75.24 ± 2.4 kPa | vapor or sublimation pressure (277.96 K): 77.86 ± 2.4 kPa | vapor or sublimation pressure (278.77 K): 80.2 ± 2.4 kPa | vapor or sublimation pressure (278.99 K): 81.33 ± 2.4 kPa | vapor or sublimation pressure (279.8 K): 83.72 ± 2.4 kPa | vapor or sublimation pressure (280.56 K): 85.87 ± 2.4 kPa | vapor or sublimation pressure (281.62 K): 89.39 ± 2.4 kPa | vapor or sublimation pressure (282.8 K): 93.36 ± 2.4 kPa | vapor or sublimation pressure (283.65 K): 95.62 ± 2.4 kPa | vapor or sublimation pressure (284.51 K): 98.59 ± 2.4 kPa | vapor or sublimation pressure (285.1 K): 100.84 ± 2.4 kPa | vapor or sublimation pressure (286.15 K): 103.78 ± 2.4 kPa | vapor or sublimation pressure (287.18 K): 107.59 ± 2.4 kPa | vapor or sublimation pressure (288.59 K): 113.2 ± 2.4 kPa | vapor or sublimation pressure (289.24 K): 115.72 ± 2.4 kPa | vapor or sublimation pressure (290.31 K): 120.08 ± 2.4 kPa | vapor or sublimation pressure (292.2 K): 128.29 ± 2.4 kPa | vapor or sublimation pressure (294.48 K): 138.49 ± 2.4 kPa | vapor or sublimation pressure (296.12 K): 146.32 ± 2.4 kPa | vapor or sublimation pressure (297.41 K): 152.85 ± 2.4 kPa | vapor or sublimation pressure (298.46 K): 158.2 ± 2.4 kPa | vapor or sublimation pressure (299.53 K): 164.03 ± 2.4 kPa | vapor or sublimation pressure (300.22 K): 167.73 ± 2.4 kPa | vapor or sublimation pressure (301.38 K): 174.15 ± 2.4 kPa | vapor or sublimation pressure (303.03 K): 183.59 ± 2.4 kPa | vapor or sublimation pressure (304.22 K): 191.32 ± 2.5 kPa | vapor or sublimation pressure (305.36 K): 198.32 ± 2.5 kPa | vapor or sublimation pressure (306.37 K): 205.25 ± 2.5 kPa | vapor or sublimation pressure (307.38 K): 212.61 ± 2.5 kPa | vapor or sublimation pressure (308.45 K): 219.76 ± 2.5 kPa | vapor or sublimation pressure (309.44 K): 226.88 ± 2.5 kPa | vapor or sublimation pressure (311.14 K): 239.23 ± 2.5 kPa | vapor or sublimation pressure (312.65 K): 250.71 ± 2.5 kPa | vapor or sublimation pressure (313.32 K): 255.58 ± 2.5 kPa | vapor or sublimation pressure (314.65 K): 265.41 ± 2.5 kPa | vapor or sublimation pressure (315.41 K): 271.67 ± 2.5 kPa | vapor or sublimation pressure (316.41 K): 279.99 ± 2.5 kPa | vapor or sublimation pressure (317.54 K): 288.86 ± 2.5 kPa | vapor or sublimation pressure (318.54 K): 296.49 ± 2.5 kPa | vapor or sublimation pressure (319.54 K): 305.35 ± 2.5 kPa | vapor or sublimation pressure (320.2 K): 312.84 ± 2.5 kPa | vapor or sublimation pressure (321.51 K): 323.9 ± 2.5 kPa | vapor or sublimation pressure (322.28 K): 330.9 ± 2.5 kPa | vapor or sublimation pressure (322.39 K): 331.79 ± 2.5 kPa | vapor or sublimation pressure (323.27 K): 340.55 ± 2.5 kPa | vapor or sublimation pressure (324.4 K): 351.13 ± 2.5 kPa | vapor or sublimation pressure (325.16 K): 359.71 ± 2.5 kPa | vapor or sublimation pressure (326.17 K): 370.1 ± 2.5 kPa | vapor or sublimation pressure (327.54 K): 383.61 ± 2.5 kPa | vapor or sublimation pressure (328.16 K): 390.36 ± 2.5 kPa | vapor or sublimation pressure (329.38 K): 402.72 ± 2.5 kPa | vapor or sublimation pressure (330.27 K): 412.59 ± 2.6 kPa | vapor or sublimation pressure (331.36 K): 424.58 ± 2.6 kPa | vapor or sublimation pressure (332.28 K): 434.81 ± 2.6 kPa | vapor or sublimation pressure (333.1 K): 444.59 ± 2.6 kPa | vapor or sublimation pressure (333.37 K): 447.55 ± 2.6 kPa | vapor or sublimation pressure (334.34 K): 462.26 ± 2.6 kPa | vapor or sublimation pressure (335.18 K): 468.47 ± 2.6 kPa | vapor or sublimation pressure (336.2 K): 480.83 ± 2.6 kPa | vapor or sublimation pressure (337.33 K): 494.73 ± 2.6 kPa | vapor or sublimation pressure (338.3 K): 506.41 ± 2.6 kPa | vapor or sublimation pressure (339.24 K): 518.13 ± 2.6 kPa | vapor or sublimation pressure (340.43 K): 533.53 ± 2.6 kPa | vapor or sublimation pressure (341.35 K): 545.17 ± 2.7 kPa | vapor or sublimation pressure (342.25 K): 558.82 ± 2.7 kPa | vapor or sublimation pressure (342.53 K): 561.23 ± 2.6 kPa | vapor or sublimation pressure (344.38 K): 589.61 ± 2.7 kPa | vapor or sublimation pressure (345.78 K): 613.34 ± 2.8 kPa | vapor or sublimation pressure (346.77 K): 629.58 ± 2.7 kPa | vapor or sublimation pressure (347.88 K): 646.33 ± 2.7 kPa | vapor or sublimation pressure (348.77 K): 660.14 ± 2.8 kPa | vapor or sublimation pressure (349.98 K): 679.92 ± 2.8 kPa | vapor or sublimation pressure (350.86 K): 695.77 ± 2.8 kPa | vapor or sublimation pressure (352.84 K): 728.61 ± 2.8 kPa | vapor or sublimation pressure (354.89 K): 762.84 ± 2.8 kPa | vapor or sublimation pressure (356.87 K): 799.73 ± 2.9 kPa | vapor or sublimation pressure (358.89 K): 838.22 ± 2.9 kPa | vapor or sublimation pressure (360.78 K): 874.39 ± 3 kPa | vapor or sublimation pressure (362.63 K): 916.57 ± 3 kPa | vapor or sublimation pressure (364.64 K): 957.2 ± 3 kPa | vapor or sublimation pressure (366.88 K): 1003.7 ± 3.1 kPa | vapor or sublimation pressure (368.89 K): 1047.8 ± 3.1 kPa | vapor or sublimation pressure (370.88 K): 1093 ± 3.2 kPa | vapor or sublimation pressure (372.9 K): 1138.9 ± 3.2 kPa
